Source: patent publication US20220233656A1, “ANTIBACTERIAL COMPOSITION” (NATIONAL UNIVERSITY CORPORATION TOKYO MEDICAL AND DENTAL …, priority 2019, published 2022)

Assays:
[1] = system: Pseudomonas aeruginosa (NBRC 13275); experiment: Transmission electron microscope observation; type: cell-based; conditions: 37° C., 2 hours, complex 1,000 μg/mL, mixture 500 + 500 μg/mL; for morphological changes (TEM): lysozyme alone 500 μg/mL, chitosan alone 500 μg/mL
Description: (§1) As a control, physiological saline (0.9% NaCl solution) was used.
(§2) Then, centrifugation was performed, and the resultant pellets were washed with physiological saline (0.9% NaCl), fixed in a 1.0% buffered osmium tetroxide buffer solution in a 0.1 M phosphate buffered saline for 1 hour, embedded in 2.0% agar, dehydrated with ethanol, and then embedded in Epon 812 (TAAB Laboratories Equipment Ltd.). Ultrathin sections of 70 nm were collected on a copper grid, double-stained with uranyl acetate and lead citrate, and observed with a transmission electron microscope (H-7100) at 75 kV.

Acinetobacter baumannii [2] = experiment: Transmission electron microscope observation; type: cell-based; conditions: 37° C., 2 hours, complex 1,000 μg/mL, mixture 500 + 500 μg/mL; for morphological changes (TEM): lysozyme alone 500 μg/mL, chitosan alone 500 μg/mL
Description: as §1, §2

[3] = system: Pseudomonas aeruginosa (NBRC 13275); experiment: Growth suppression effect test at various concentrations (Experimental Example 4); type: cell-based; conditions: 2,000 μg/mL, 5,000 μg/mL and 10,000 μg/mL in TSB, 6 hours
Description: (§3) As a control, TSB medium without additives was used. The Acinetobacter bacterial suspension or Pseudomonas aeruginosa bacterial suspension was prepared in the same way as in Experimental Example 1 described above. […] After 6 hours, 0.1 mL of each solution was added to a solid medium (Mueller-Hinton medium) and allowed to grow overnight, and then the bacteria count was measured. The bacterial suspensions were tested on each solution 18 times for Pseudomonas aeruginosa (NBRC 13275) and 8 times each for Pseudomonas aeruginosa (PAO1) and Acinetobacter by duplicate (mean of triplicate measurements and SEM (standard error of sample mean)) in independent experiments.

[4] = system: Pseudomonas aeruginosa (NBRC 13275); experiment: Cell membrane integrity test (absorbance at 260 nm); type: cell-based
Excerpt: (§4) The measurement of absorbance at 260 nm (A260nm) was used to estimate the amount of nucleic acid released from the cytoplasm, thereby evaluating the integrity of the cell membrane. When a bacterial cell membrane is compromised by an antibacterial agent, intracellular components are released into the extracellular space. The measurement of absorbance at 260 nm is used to estimate the amount of DNA and RNA released from the cytoplasm.
(§5) Specifically, evaluation on whether substances with absorption at 260 nm were released from the bacteria was performed by measuring the absorption at 260 nm with ND-1000 manufactured by Thermo Fisher Scientific. […] As a control, a 0.5% NaCl solution was used. The Pseudomonas aeruginosa bacterial suspension and Acinetobacter bacterial suspension prepared in the same manner as in Experimental Example 1 were resuspended in a 0.5% NaCl solution, and prepared with such a final suspension concentration that the absorbance at 420 nm was 0.7. […] At 20 minutes, 40 minutes, 60 minutes, 80 minutes, 100 minutes, and 120 minutes after the start of incubation, each solution was subjected to a 0.22 μm syringe filter to remove bacteria, and the absorbance at 260 nm (A260nm) was measured. The results for absorbance, expressed as the average of triplicate measurements and SEM (standard error of sample mean), are shown in FIGS. 4A and 4B.

[5] = system: Acinetobacter baumannii (JCM 6841); experiment: Bacteria-killing test (Experimental Example 1); type: cell-based; conditions: 2,000 μg/mL in physiological saline, 37° C., at 60 minutes and 120 minutes, versus control
Description: The bacteria-killing property of the lysozyme-chitosan complex (LYZOX (registered trademark)) against Acinetobacter and the like was measured in comparison with a mixture of lysozyme and chitosan and the like.
(§6) As a control, physiological saline (0.9% NaCl solution) was used. The Acinetobacter bacterial suspension or Pseudomonas aeruginosa bacterial suspension was prepared as follows. Pseudomonas aeruginosa (NBRC 13275 or PAO1) or Acinetobacter baumannii (JCM 6841) was grown overnight at 37° C. in trypsin soy broth (TSB), centrifuged during the logarithmic growth phase, and collected, and the bacteria were resuspended in physiological saline (0.9% NaCl), with such a final suspension concentration that the absorbance was 1.0 (10^8 to 10^9 CFU/mL) at 600 nm.
(§7) At 0 minutes, 30 minutes, 60 minutes, and 120 minutes after the start of incubation, 0.1 mL of each solution was added to a solid medium (Mueller-Hinton medium) for overnight growth, and then the bacteria count was measured. The test of the bacterial suspensions against each solution was performed three times and measured.

Acinetobacter baumannii [6] = experiment: Drug resistance acquisition test (MIC after repeated subculture); type: cell-based; conditions: after 10 subcultures at ½ MIC in LB medium
Description: (§8) The MIC was defined as the minimum concentration of the reagent without visual turbidity observed after 18 hours and 24 hours of evaluation. […] The bacteria that were not subcultured was evaluated as a control (CTL in FIGS. 10A and 10B). MIC measurements were repeated 10 times to evaluate the development of drug resistance in these bacteria.

[7] = system: Pseudomonas aeruginosa (NBRC 13275 and PAO 1); experiment: as above; type: cell-based; conditions: after 10 subcultures at ½ MIC in LB medium
Description: as §8

[8] = system: Pseudomonas aeruginosa (NBRC 13275); experiment: Bacteria-killing test at various concentrations (Experimental Example 2); type: cell-based; conditions: 200 μg/mL, 2,000 μg/mL and 10,000 μg/mL in physiological saline
Description: as §6, §7

[9] = system: Pseudomonas aeruginosa (NBRC 13275); experiment: Confocal laser scanning microscope observation (LIVE/DEAD BacLight); type: cell-based; conditions: final 1,000 μg/mL, 37° C., 2 hours
Description: (§9) As a control, physiological saline (0.9% NaCl solution) was used. To 500 μL of these solutions, 500 μL of Pseudomonas aeruginosa bacterial suspension and Acinetobacter bacterial suspension prepared in the same manner as in Experimental Example 1 above was added, and incubated at 37° C. for 2 hours. Then, 3 μL of LIVE/DEAD BacLight reagent (a mixture of SYTO 9 and propidium iodide (PI), which stain nucleic acids) was added and further incubated for 15 minutes at room temperature. SYTO 9 with green fluorescence labels all bacteria, while PI with red fluorescence permeates only bacteria with damaged plasma membranes, and the presence of both dyes attenuates the fluorescence of SYTO 9.

[10] = system: Acinetobacter baumannii (JCM 6841); experiment: Growth suppression effect test (Experimental Example 3); type: cell-based; conditions: 2,000 μg/mL in TSB, 37° C., 6 hours, versus control
Description: as §3

Acinetobacter (JCM 6841) [11] = experiment: Confocal laser scanning microscope observation (LIVE/DEAD BacLight); type: cell-based, Acinetobacter baumannii; conditions: final 1,000 μg/mL, 37° C., 2 hours
Description: as §9

Acinetobacter (JCM 6841) [12] = experiment: Cell membrane integrity test (absorbance at 260 nm); type: cell-based, Acinetobacter baumannii
Excerpt: as §4, §5

Acinetobacter (JCM 6841) [13] = experiment: ONPG assay (intracellular membrane permeability test); type: cell-based, Acinetobacter baumannii; conditions: for absorbance 420 nm (ONPG), time course: up to 100 minutes
Description: (§10) Intracellular membrane permeability was determined by ONPG assay (o-nitrophenyl-β-D-galactopyranoside (ONPG) assay). When the cell membrane is damaged, intracellular enzymes, including β-galactosidase, leak out of the cell. ONPG is normally colorless, but is hydrolyzed by β-galactosidase to galactose and o-nitrophenol, resulting in an increase in absorbance at 420 nm. The intracellular membrane permeability of bacteria can be determined by measuring the activity of cytosolic β-galactosidase released from the bacteria using ONPG as a substrate.
(§11) Specifically, evaluation on whether substances with absorption at 420 nm were released was performed by measuring the absorption at 420 nm with the spectrophotometer ASV11D. […] As a control, a 0.5% NaCl solution was used. The Pseudomonas aeruginosa bacterial suspension and Acinetobacter bacterial suspension prepared in the same manner as in Experimental Example 1 were resuspended in a 0.5% NaCl solution, and prepared with such a final suspension concentration that the absorbance at 420 nm was 1.2. […] The increase in absorbance at 420 nm (A420nm) was evaluated by performing triplicate measurements.

[14] = system: Pseudomonas aeruginosa (NBRC 13275); experiment: as above; type: cell-based; conditions: final 200, 2,000 and 5,000 μg/mL
Description: as §10, §11

[15] = final 2,000, 5,000 and 10,000 μg/mL, 0.5% NaCl, 37° C.
[16] = various concentrations, 20 to 120 minutes

Description for rabbit erythrocytes: Each resulting mixed solution was incubated at 37° C. for 1 hour, and centrifuged at 1500 rpm for 10 minutes, and the supernatant was collected. […] Each absorbance (OD) was measured at 545 nm to calculate the hemolytic rate by using the following formula. The absorbance value at 545 nm was expressed as the average and SEM (standard error of the sample mean) of triplicate measurements.

## lysozyme alone: lysozyme (manufactured by Nippon Biocon Ltd.), enzyme that hydrolyzes mucopolysaccharides [reference compound]
[1]
  morphological changes (TEM): formed spheroplasts
Acinetobacter baumannii [2]
  morphological changes (TEM): formed spheroplasts

## lysozyme-chitosan complex: Commercial LYZOX powder: chicken-derived lysozyme (about 14,000 Da) and about 5,000 Da water-soluble chitosan, mass ratio 1:1, bound by Maillard reaction
[3]
  growth suppression effect (bacteria count): concentration-dependent growth suppression effect
[4]; [15]
  absorbance 260 nm, dependence on concentration: increased in a concentration-dependent manner
[4]; [16]
  absorbance 260 nm, time course: increased rapidly in the first 20 minutes, and then the rate of increase decreased until 120 minutes
[5]
  bacteria count (bacteria-killing): significantly reduced the bacteria count than the control
Acinetobacter baumannii [6]
  acquisition of drug resistance (change of MIC): did not acquire resistance
[7]
  acquisition of drug resistance (change of MIC): did not acquire resistance
[8]
  bacteria-killing activity (bacteria count): concentration-dependent bacteria-killing activity
[9]
  aggregation of bacterial cells (CLSM): aggregated to form clusters
  bacterial cells with damaged membranes (red fluorescence, CLSM): more bacterial cells with damaged membranes than in the corresponding control
[10]
  bacteria count (growth suppression): significantly reduced the bacteria count than the control
[1]
  morphological changes (TEM): spherical cells with outer membrane vesicles
  cell walls and intracellular contents (TEM): bacterial cell walls were disrupted and the intracellular contents were released from the cells
Acinetobacter baumannii [2]
  morphological changes (TEM): spherical cells with outer membrane vesicles
  cell walls and intracellular contents (TEM): bacterial cell walls were disrupted and the intracellular contents were released from the cells
Acinetobacter (JCM 6841) [11]
  aggregation of bacterial cells (CLSM): less aggregation of bacterial cells than Pseudomonas aeruginosa
  bacterial cells with damaged membranes (red fluorescence, CLSM): more bacterial cells with damaged membranes than in the corresponding control
Rabbit erythrocytes
  hemolysis of rabbit erythrocytes: almost did not hemolyze
Acinetobacter (JCM 6841) [12]; [15]
  absorbance 260 nm, dependence on concentration: increased in a concentration-dependent manner
Acinetobacter (JCM 6841) [12]; final 2,000, 5,000 and 10,000 μg/mL, 20 to 120 minutes
  absorbance 260 nm compared to the control: higher absorbance in Acinetobacter compared to the control
Acinetobacter (JCM 6841) [12]; [16]
  absorbance 260 nm, time course: increased rapidly in the first 20 minutes, and then the rate of increase decreased until 120 minutes
Acinetobacter (JCM 6841) [13]; 200 μg/mL
  absorbance 420 nm (ONPG), time course: increased in the first 10 minutes and remained constant thereafter
Acinetobacter (JCM 6841) [13]; 2,000 μg/mL and 5,000 μg/mL
  absorbance 420 nm (ONPG), time course: increased rapidly at first and then slowly until 100 minutes
Acinetobacter (JCM 6841) [13]; ONPG assay
  effect on the inner membrane: disrupt the inner membrane of Acinetobacter
Acinetobacter (JCM 6841) [13]; final 200, 2,000 and 5,000 μg/mL
  absorbance 420 nm (ONPG), dependence on concentration: increased in a concentration-dependent manner
[14]
  absorbance 420 nm (ONPG), dependence on concentration: increased in a concentration-dependent manner

## poly-β1→4-glucosamine [chitosan alone, reference compound]
[1]
  morphological changes (TEM): formed numerous vesicles on their surfaces
Acinetobacter baumannii [2]
  morphological changes (TEM): formed numerous vesicles on their surfaces
